# Reference: patent publication US5886027A, “Fungicidal compounds” (BTG International Limited, priority 1995, dated 1999)
# Legend:
# [1] = Jacobsen and Wengel, Pestic. Sci., 1986, 17, 686-690; cited from earlier work
# Botrytis cinerea = test: microbe, parasite or virus in culture; format: cell-based, Botrytis cinerea (grey mould)
# Fusarium graminearum = test: microbe, parasite or virus in culture; format: cell-based
# [2] = test system: Pseudocercosporella herpotrichoides; test: microbe, parasite or virus in culture; format: cell-based, Pseudocercosporella herpotrichoides (eyespot)
# Pyricularia oryzae = test: microbe, parasite or virus in culture; format: cell-based
# Rhizoctonia solani = test: microbe, parasite or virus in culture; format: cell-based
# [3] = test system: Pseudocercosporella herpotrichoides; test: Further in vitro assay, W-type and R-type isolates of Pseudocercosporella herpotrichoides; format: cell-based
# Aspergillus niger = test: microbe, parasite or virus in culture; format: cell-based
# [4] = test system: Erysiphe graminis f.sp hordei; parameters: species or system Erysiphe graminis f.sp hordei (barley powdery mildew); conditions: in vivo
# Septoria tritici = test: microbe, parasite or virus in culture; format: cell-based, Septoria tritici (wheat leaf blotch)
# Rhynchosporium secalis = format: cell-based, Rhynchosporium secalis (barley leaf blotch)
# Ustilago maydis = test: microbe, parasite or virus in culture; format: cell-based, Ustilago maydis (maize smut)
# Neurospora crassa = test: microbe, parasite or virus in culture; format: cell-based
# Helminthosporium solani = test: Further in vitro assay, isolates of Helminthosporium solani; format: cell-based; conditions: H. solani, Table 2(e)
# Fusarium sulphureum = test: Further in vitro assay, isolates of Fusarium sulphureum; format: cell-based; conditions: F. sulphureum, Table 2(f)
# 14 day old seedlings = test: Phytotoxic effects on sprayed 14 day old seedlings; format: in vivo, barley; conditions: dosage levels below those currently used for triazole fungicides
# [5] = read-out: % inhibition of growth in colony diameter
# [6] = Rhizoctonia solani, read-out: % inhibition of growth in colony diameter
# [7] = Aspergillus niger, read-out: % inhibition of growth in colony diameter
structure (smiles),measurement,setting,value
CC(C)c1cc2c(o1)C(=O)c1ccccc1C2=O [(A)],fungicidal activity,[1],inactive
CCC1(CC)CC2=C(O1)C(=O)c1ccccc1C2=O [(B)],fungicidal activity,[1],intermediate fungicidal activity
c1ccc2[nH]cnc2c1 [Benzimidazole],Sensitivity (S/R),Botrytis cinerea,R and S
same,Sensitivity (R),Fusarium graminearum; isolate JF18,R
same,Sensitivity (R),[2],R
"COC(=O)Nc1nc2ccccc2[nH]1 [Carbendazim, reference compound]",inhibition at 1 µg/mL,Pyricularia oryzae; [5],14.7%
same,inhibition at 4 µg/mL,Pyricularia oryzae; [5],99.4%
same,inhibition at 1 µg/mL,Rhizoctonia solani; [6],3.3%
same,inhibition at 4 µg/mL,Rhizoctonia solani; [6],81.2%
same,Sensitivity to Carbendazim,[3]; R-type isolate (first line),Sensitive
same,Sensitivity to Carbendazim,[3]; R-type isolate (second line),Resistant
same,Sensitivity to Carbendazim,[3]; W-type isolate (first line),Sensitive
same,Sensitivity to Carbendazim,[3]; W-type isolate (second line),Resistant
"CCCN(CCOc1c(Cl)cc(Cl)cc1Cl)C(=O)n1ccnc1 [Prochloraz, reference compound]",inhibition at 1 µg/mL,"Aspergillus niger; Aspergillus niger, 1 mg/l, read-out: % inhibition of growth in colony diameter",97.1%
CC(C)(C)C(O)C(Oc1ccc(Cl)cc1)n1cncn1 (stereo not drawn) [Triadimenol],Sensitivity of isolate (S/R),[4],S and R
CC1OC2=C(C(=O)C(=O)c3ccccc32)C1(C)C (stereo not drawn) [dunnione],anti-fungal activity (in words),Septoria tritici,active
same,level of activity compared with azole fungicides currently in use,Septoria tritici,"similar, or better"
same,MIC,"Septoria tritici; Zymoseptoria tritici, read-out: Sensitivity MIC",5 µg/mL
same,anti-fungal activity (in words),Rhynchosporium secalis,active
same,level of activity compared with azole fungicides currently in use,Rhynchosporium secalis,"similar, or better"
same,anti-fungal activity (in words),Ustilago maydis,active
same,level of activity compared with azole fungicides currently in use,Ustilago maydis,"similar, or better"
same,IC50,"Ustilago maydis; Mycosarcoma maydis, ATCC14826, read-out: ED50",3 µg/mL
same,anti-fungal activity (in words),Neurospora crassa,Significant activity
same,IC50,"Neurospora crassa; Neurospora crassa, read-out: ED50",2 µg/mL
same,anti-fungal activity (in words),Botrytis cinerea,some activity
same,IC50,"Botrytis cinerea; Botrytis cinerea, read-out: Sensitivity ED50",> 20 µg/mL
same,anti-fungal activity (in words),Fusarium graminearum; Fusarium graminearum,some activity
same,IC50,"Fusarium graminearum; Fusarium graminearum, read-out: Sensitivity ED50",20 µg/mL
same,IC50,"[2]; Oculimacula yallundae, read-out: Sensitivity ED50",17 µg/mL
same,fungicidal activity (in words),Aspergillus niger,active
same,inhibition at 4 µg/mL,Aspergillus niger; [7],30%
same,inhibition at 20 µg/mL,Aspergillus niger; [7],99%
same,inhibition at 100 µg/mL,Aspergillus niger; [7],100%
same,fungicidal activity (in words),Pyricularia oryzae,active
same,inhibition at 4 µg/mL,Pyricularia oryzae; [5],75%
same,inhibition at 20 µg/mL,Pyricularia oryzae; [5],99%
same,inhibition at 100 µg/mL,Pyricularia oryzae; [5],100%
same,fungicidal activity (in words),Rhizoctonia solani,active
same,inhibition at 4 µg/mL,Rhizoctonia solani; [6],37%
same,inhibition at 20 µg/mL,Rhizoctonia solani; [6],93%
same,inhibition at 100 µg/mL,Rhizoctonia solani; [6],100%
same,fungicidal activity (in words),[3]; Pseudocercosporella herpotrichoides,inconsistent
same,cross-resistance with carbendazim,[3]; Table 2(d),no evidence of cross-resistance
same,cross-resistance with thiabendazole,Helminthosporium solani,no evidence of cross-resistance
same,cross-resistance with thiabendazole,Fusarium sulphureum,no evidence of cross-resistance
same,fungicidal effect (in words),[4],fungicidally effective
same,phytotoxic effects,14 day old seedlings,no noticeable phytotoxic effects
